≈ marks a conversion by molar mass, not a printed value. Like-named read-outs stand apart in the source and are kept apart here.
What was measured:
in vivo = conditions: mouse, acute
Helicobacter pylori = assay: MIC (minimum inhibitory concentration) determination using various clinical isolates of H.pylori; format: cell-based; conditions: Mueller-Hinton agar with 7% defibrinated horse blood, pH 7.2, 72 hours, 37° C., 5% CO2
Experimental: The activity of the compounds of formula I against Helicobacter pylori can be verified e.g. by determination of the MIC (minimum inhibitory concentration) in the following test method using various clinical isolates of H.pylori: Clinical isolates of H.pylori are stored at -70° C. in Brucella broth with 20% glycerol. All isolates are subcultured on fresh blood agar Blood agar base No. 2, Unipath, with 5% defibrinated horse blood) and confirmed as Helicobacter pylori by Gram shin, catalase, oxidase and rapid-urease tests. Initial incubation is carried out microaerobically in a variable-atmosphere incubator (6% O2, 10% CO2, 3% H2, 81% N2) at 37° C. Subcultures and MIC tests are carried out in humidified air with 5% CO2 at 37° C. Test compounds are incorporated into Mueller-Hinton agar (Unipath) with 7% defibrinated horse blood at pH 7.2. After growth for 72 hours on blood agar H.pylori suspensions are made in Brucella broth (Unipath) equivalent to McFarland standard No. 3. This represents 10^8 cfu/ml H.pylori. A multipoint inoculator will deliver 1 μl per spot (approximately 10^5 cfu). The type strain NCTC 11637 is used as a control in each run. […] All tests are carried out in triplicate.

| Structure (SMILES) | LD50 (in vivo; ip, i.p., read-out: LD50 i.p.) | LD50 (in vivo; po, p.o., read-out: LD50 p.o.) | MIC (Helicobacter pylori) |
| --- | --- | --- | --- |
| CN(C/C=C/C#CC(C)(C)C)Cc1cccc2ccccc12 | 790 mg/kg | > 1000 mg/kg |  |
| C(=C\c1ccccc1)/CN1CCCC[C@@H]1c1cccc2ccccc12 [N-[(E)-3-phenyl-2-propenyl-2-piperidinyl] |  |  | 0.06 to 4 µg/mL (≈ 0.183 to 12.2 µM) |

— patent US5935998A, “Use of all allylamine derivatives such as terbinafine, in the manufacture of a medicament for the treatment of helicobacter pylori infection or associated diseases” (Novartis AG, priority 1995, dated 1999)
